Key:
TDO [1] = molecular target: T1, TDO (Homo sapiens, UniProt P48775); assay: A172 kynurenine cell-based assay; parameters: This assay utilised cancer cells which expressed either TDO or IDO; endogenous in cells; host or cells: A172 (human glioblastoma); conditions: A172 human glioblastoma cells, 48 hours, read-out: A172 Kynurenine cell based assay pIC50 (converted)
How it was run: (§1)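 First, A172 or SKOV3 cells were seeded in phenol red-free RPMI, 10% FCS, 2 mM L-glutamine, 500 μM L-tryptophan; SKOV3 received 500 ng/ml IFN-γ for IDO induction. Next came compound exposure, 48 hours, 37° C. Finally, cells were spun out, supernatant treated with Erhlich's reagent, absorbance read at 490 nm.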

IDO [2] = molecular target: T2, IDO (Homo sapiens, UniProt P14902); assay: SKOV3 kynurenine cell-based assay (IDO induced by IFN-γ); parameters: IDO expression was induced in the SKOV3 cells by the addition of 500 ng/ml IFN-γ; endogenous in cells; host or cells: SKOV3 (human ovarian adenocarcinoma), induced with IFN-γ; conditions: 48 hours, read-out: SKOV3 Kynurenine cell based assay pIC50 (converted)
T2 sequence (P14902 whole entry): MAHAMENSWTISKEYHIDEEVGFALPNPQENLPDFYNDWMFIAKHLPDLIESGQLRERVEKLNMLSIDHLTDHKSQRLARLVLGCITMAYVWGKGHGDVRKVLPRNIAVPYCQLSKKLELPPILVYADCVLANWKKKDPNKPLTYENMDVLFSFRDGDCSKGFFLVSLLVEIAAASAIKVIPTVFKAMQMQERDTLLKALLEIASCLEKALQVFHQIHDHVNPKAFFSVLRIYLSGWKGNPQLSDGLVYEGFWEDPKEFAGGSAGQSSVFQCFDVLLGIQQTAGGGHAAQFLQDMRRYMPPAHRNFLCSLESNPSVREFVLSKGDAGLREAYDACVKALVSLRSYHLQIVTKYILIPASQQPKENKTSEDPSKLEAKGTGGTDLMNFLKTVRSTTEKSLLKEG
How it was run: as §1

IDO [3] = molecular target: T2, IDO; assay: hIDO biochemical coupled assay; conditions: 45 μM L-tryptophan, read-out: hIDO biochemical assay pIC50 (converted)
Description: Two different assays were employed: 1. a cell-based assay for detecting the effect of test compounds on kynurenine production in two different cancer cell types. This assay utilised cancer cells which expressed either TDO or IDO and as such was used as a means of testing compound activity at these two enzymes in a cell-based context. 2. a TDO and IDO biochemical coupled assay which utilised recombinantly produced and purified TDO and IDO enzymes in combination with the enzyme formamidase. This coupled enzyme system allowed conversion of N-formylkynurenine produced by TDO or IDO activity to kynurenine which was then quantified by fluorescence following addition of Erhlich's Reagent The protocols for these are set out below.

TDO [4] = molecular target: T1, TDO; assay: hTDO biochemical coupled assay; conditions: 330 μM L-tryptophan, read-out: hTDO biochemical assay pIC50 (converted)
[5] = SKOV3 human ovarian adenocarcinoma cells, 500 ng/ml IFN-γ, 500 μM L-tryptophan
[6] = SKOV3 cells, IDO induced by 500 ng/ml IFN-γ

T1 sequence (P48775 whole entry): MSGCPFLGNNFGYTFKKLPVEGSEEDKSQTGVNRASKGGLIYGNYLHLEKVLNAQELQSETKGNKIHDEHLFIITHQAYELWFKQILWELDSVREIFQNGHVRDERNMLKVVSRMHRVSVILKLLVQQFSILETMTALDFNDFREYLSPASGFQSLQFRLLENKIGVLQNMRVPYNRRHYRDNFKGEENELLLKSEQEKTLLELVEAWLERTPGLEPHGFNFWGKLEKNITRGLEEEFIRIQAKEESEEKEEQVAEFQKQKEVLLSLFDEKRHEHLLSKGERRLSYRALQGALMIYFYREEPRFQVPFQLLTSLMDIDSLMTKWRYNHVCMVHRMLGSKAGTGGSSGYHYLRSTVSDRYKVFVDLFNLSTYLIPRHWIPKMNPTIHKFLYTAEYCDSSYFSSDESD

Row | Compound | IC50 (TDO [1]; 500 μM L-tryptophan) | IC50 (IDO [2]; [5]) | IC50 (IDO [3]; 17 minutes, room temperature) | IC50 (TDO [4]; 17 minutes, room temperature) | IC50 (TDO [1]) | IC50 (IDO [2]; [6]) | IC50 (IDO [3]) | IC50 (TDO [4])
1 | O=C1NC2(CCN(c3cc(Br)cc4[nH]ncc34)CC2)C(=O)N1Cc1ccccc1 [Compound 406] | < 3.16 µM | < 3.16 µM | < 3.16 µM | < 3.16 µM | – | – | – | –
2 | CC(=O)N(C)CC1CCCN(c2cc(Cl)cc3[nH]ncc23)C1 (centres unmarked) [Compound 286] | 3.24 to 31.6 µM | 3.24 to 31.6 µM | > 100 µM | < 3.16 µM | – | – | – | –
3 | Cn1cc(-c2cc(Cl)cc3[nH]ncc23)cn1 [Compound 366] | < 3.16 µM | 3.24 to 31.6 µM | > 100 µM | 3.24 to 31.6 µM | – | – | – | –
4 | OC1(c2cc(Cl)cc3[nH]ncc23)CCOCC1 [Compound 319] | < 3.16 µM | 32.4 to 100 µM | 3.24 to 31.6 µM | < 3.16 µM | – | – | – | –
5 | CC(C)(C)CC(=O)Nc1cccc2[nH]ncc12 [Compound 4, N-(1H-indazol-4-yl)-3,3-dimethylbutanamide] | 32.4 to 100 µM | > 100 µM | > 100 µM | < 3.16 µM | – | – | – | –
6 | CS(=O)(=O)N1CCC(c2cc(Cl)cc3[nH]ncc23)CC1 [Compound 40, 6-chloro-4-(1-(methylsulfonyl)piperidin-4-yl)-1H-indazole] | < 3.16 µM | 3.24 to 31.6 µM | < 3.16 µM | < 3.16 µM | 0.0832 µM | 8.32 µM | 2.34 µM | 0.302 µM
7 | NC(=O)c1ccc(-c2cc(Cl)cc3[nH]ncc23)cc1 [Compound 256] | < 3.16 µM | 3.24 to 31.6 µM | > 100 µM | < 3.16 µM | – | – | – | –
8 | NS(=O)(=O)c1ccc(-c2cc(Cl)cc3[nH]ncc23)cc1 [Compound 269] | < 3.16 µM | 3.24 to 31.6 µM | > 100 µM | < 3.16 µM | – | – | – | –
9 | O=C1CCCN1C1CCN(c2cc(Cl)cc3[nH]ncc23)CC1 [Compound 372] | < 3.16 µM | 3.24 to 31.6 µM | > 100 µM | < 3.16 µM | – | – | – | –
10 | O=C1N[C@H]2CC[C@@H]1CN(c1cc(Cl)cc3[nH]ncc13)C2 [Compound 393, (1R,5S)-3-(6-chloro-1H-indazol-4-yl)-3,6-diazabicyclo[3.2.2]nonan-7-one] | < 3.16 µM | 32.4 to 100 µM | 32.4 to 100 µM | < 3.16 µM | 0.055 µM | 38 µM | 51.3 µM | 0.245 µM
11 | CS(=O)(=O)NCCn1cc(-c2cc(Cl)cc3[nH]ncc23)cn1 [Compound 373] | < 3.16 µM | 32.4 to 100 µM | > 100 µM | 3.24 to 31.6 µM | – | – | – | –
12 | Nc1ccnn1C1CCN(c2cc(Cl)cc3[nH]ncc23)CC1 [Compound 430] | 3.24 to 31.6 µM | > 100 µM | < 3.16 µM | < 3.16 µM | – | – | – | –
13 | O=C1CCC2(CCN1)CCN(c1cc(Cl)cc3[nH]ncc13)CC2 [Compound 394] | < 3.16 µM | < 3.16 µM | 3.24 to 31.6 µM | < 3.16 µM | – | – | – | –
14 | c1ccc(CNc2cccc3[nH]ncc23)cc1 [Compound 34] | 32.4 to 100 µM | 32.4 to 100 µM | > 100 µM | 3.24 to 31.6 µM | – | – | – | –
15 | O[C@H]1CCCC[C@@H]1c1cc(Cl)cc2[nH]ncc12 [Compound 418] | < 3.16 µM | > 100 µM | > 100 µM | < 3.16 µM | – | – | – | –
16 | Cn1cc2c(n1)CCN(c1cc(Cl)cc3[nH]ncc13)C2 [Compound 360] | < 3.16 µM | 3.24 to 31.6 µM | 32.4 to 100 µM | < 3.16 µM | – | – | – | –
17 | Clc1cc(N2CCc3ccccc3C2)c2cn[nH]c2c1 [Compound 304] | < 3.16 µM | 32.4 to 100 µM | > 100 µM | < 3.16 µM | – | – | – | –
18 | CC(=O)N1CCC(c2cc(C3CCCC3)cc3[nH]ncc23)CC1 [Compound 217] | > 100 µM | 32.4 to 100 µM | > 100 µM | > 100 µM | – | – | – | –

Row | Compound | IC50 (TDO [1]; 500 μM L-tryptophan) | IC50 (IDO [2]; [5]) | IC50 (IDO [3]; 17 minutes, room temperature) | IC50 (TDO [4]; 17 minutes, room temperature) | IC50 (TDO [1]) | IC50 (IDO [2]; [6]) | IC50 (IDO [3]) | IC50 (TDO [4])
19 | Clc1cc(N2C[C@H]3CC[C@@H](C2)NC3)c2cn[nH]c2c1 [Compound 448] | < 3.16 µM | > 100 µM | 3.24 to 31.6 µM | < 3.16 µM | – | – | – | –
20 | CC1(C)CN(c2cc(Cl)cc3[nH]ncc23)CCN1CCNS(C)(=O)=O [Compound 420] | < 3.16 µM | > 100 µM | 3.24 to 31.6 µM | < 3.16 µM | – | – | – | –
21 | Cn1cc2c(n1)CN(c1cc(Cl)cc3[nH]ncc13)CC2 [Compound 433] | 3.24 to 31.6 µM | > 100 µM | > 100 µM | < 3.16 µM | – | – | – | –
22 | CC(=O)N1CCC2(CCN(c3cc(Cl)cc4[nH]ncc34)CC2)C1 [Compound 350] | < 3.16 µM | 3.24 to 31.6 µM | 32.4 to 100 µM | < 3.16 µM | – | – | – | –
23 | O[C@@H]1CCCC[C@@H]1c1cc(Cl)cc2[nH]ncc12 [Compound 419] | < 3.16 µM | > 100 µM | > 100 µM | < 3.16 µM | – | – | – | –
24 | Clc1cc(N2CCN(c3nccs3)CC2)c2cn[nH]c2c1 [Compound 365] | < 3.16 µM | 3.24 to 31.6 µM | > 100 µM | < 3.16 µM | – | – | – | –
25 | CC(=O)NCCN1CCN(c2cc(Cl)cc3[nH]ncc23)CC1 [Compound 379] | < 3.16 µM | > 100 µM | > 100 µM | < 3.16 µM | – | – | – | –
26 | OC1(c2cc(Cl)cc3[nH]ncc23)CCCC1 [Compound 320] | < 3.16 µM | 3.24 to 31.6 µM | 3.24 to 31.6 µM | < 3.16 µM | – | – | – | –
27 | CC(=O)N1CCN(c2ccc3[nH]ncc3c2)CC1 [Compound 41] | 3.24 to 31.6 µM | > 100 µM | > 100 µM | 32.4 to 100 µM | – | – | – | –
28 | COC(=O)CN1CCN(c2cc(Cl)cc3[nH]ncc23)CC1(C)C [Compound 414] | < 3.16 µM | > 100 µM | 32.4 to 100 µM | < 3.16 µM | – | – | – | –
29 | NC(=O)C1CCN(c2cc(Cl)cc3[nH]ncc23)CC1 [Compound 226] | < 3.16 µM | 3.24 to 31.6 µM | < 3.16 µM | < 3.16 µM | – | – | – | –
30 | CS(=O)(=O)N1CCN(c2cc(Cl)cc3[nH]ncc23)C2CCCCC21 (single isomer, unassigned) [Compound 385] | 32.4 to 100 µM | 32.4 to 100 µM | > 100 µM | > 100 µM | – | – | – | –
31 | NC(=O)C1CCCN(c2cc(Cl)cc3[nH]ncc23)C1 (centres unmarked) [Compound 199] | < 3.16 µM | 32.4 to 100 µM | > 100 µM | < 3.16 µM | – | – | – | –
32 | CS(=O)(=O)c1ccc(-c2cc(Cl)cc3[nH]ncc23)cc1F [Compound 265] | < 3.16 µM | 3.24 to 31.6 µM | 3.24 to 31.6 µM | < 3.16 µM | – | – | – | –
33 | O=C1NC2(CCN(c3cc(Cl)cc4[nH]ncc34)CC2)C(=O)N1c1ccccc1 [Compound 456] | < 3.16 µM | – | < 3.16 µM | < 3.16 µM | – | – | – | –
34 | CC(=O)N1CCN(c2cccc3cnn(C)c23)CC1 [Compound 38] | – | – | 32.4 to 100 µM | 32.4 to 100 µM | – | – | – | –
35 | CS(=O)(=O)N1CCN(c2cc(F)cc3[nH]ncc23)CC1 [Compound 44] | – | – | > 100 µM | < 3.16 µM | – | – | – | –

From US10590086B2, “Pharmaceutical compound” (IOmet Pharma Ltd., priority 2014, dated 2020)
